According to publication PMC6151762, “Halogenated 1-Hydroxynaphthalene-2-Carboxanilides Affecting Photosynthetic Electron Transport in Photosystem II” (Molecules : A Journal of Synthetic Chemistry and Natural …, 2017):
Several values for one entry are separate records, joined by “and”; a condition that tells them apart may be missing. Equal entries are not always repeated. Where two headings read alike, the source gives them in different places.

Experiments:
[1] = system: photosynthetic electron transport (PET) in spinach chloroplasts; set-up: method as in Gonec et al. [11]; conditions: compounds 1-7 published earlier, ref Gonec et al. [11], read-out: PET Inhibition IC50; cited from earlier work
[2] = Aqueous solubility (qualitative); format: physicochemical; conditions: compared with 2,5-, 2,6-, 3,4- and 3,5-disubstituted derivatives
[3] = system: photosynthetic electron transport (PET) in spinach chloroplasts; experiment: Inhibition of photosynthetic electron transport (PET) in spinach chloroplasts (DCPIP photoreduction); format: biochemical, Spinacia oleracea L.; conditions: chlorophyll 30 mg/L
Description: Chloroplasts were prepared from spinach (Spinacia oleracea L.) according to Masarovicova and Kralova. The inhibition of photosynthetic electron transport (PET) in spinach chloroplasts was determined spectrophotometrically (Genesys 6, Thermo Scientific, USA), using an artificial electron acceptor 2,6-dichlorophenol-indophenol (DCIPP) according to Kralova et al., and the rate of photosynthetic electron transport was monitored as photoreduction of DCPIP. The measurements were carried out in phosphate buffer (0.02 M, pH 7.2) containing sucrose (0.4 M), MgCl2 (0.005 M) and NaCl (0.015 M). The chlorophyll content was 30 mg/L in these experiments, and the samples were irradiated (~100 W/m^2 with 10 cm distance) with a halogen lamp (250 W) using a 4-cm water filter to prevent warming of the samples (suspension temperature 22 °C). The studied compounds were dissolved in DMSO due to their limited water solubility. […] The inhibitory efficiency of the studied compounds was expressed by IC50 values, i.e., by molar concentration of the compounds causing a 50% decrease in the […] relative to the untreated control.

[4] = system: aromatic amino acids (AAA) in photosynthetic proteins situated mainly in PS II; experiment: Fluorescence of aromatic amino acids in spinach chloroplasts; format: biochemical, Spinacia oleracea L.; conditions: with increasing concentration (c = 0-47.2 μM); λex = 275 nm; chlorophyll 10 mg/L
Description: (§1) The fluorescence emission spectra of chlorophyll a (Chla) and aromatic amino acids in spinach chloroplasts were recorded on fluorescence spectrophotometer F-2000 (Hitachi, Tokyo, Japan) using excitation wavelength λex = 436 nm for monitoring the fluorescence of Chla and λex = 275 nm for monitoring the fluorescence of aromatic amino acids, excitation slit 20 nm and emission slit 10 nm. The samples were kept in the dark for 2 min prior to the measurement. The phosphate buffer used for dilution of the chloroplast suspension was the same as described above. Due to low aqueous solubility, the compounds were added to a chloroplast suspension in DMSO solution. The DMSO concentration in all samples was the same as in the control (10%). The chlorophyll concentration in chloroplast suspension was 10 mg/L.

[5] = system: chlorophyll a (Chla) in pigment-protein complexes in PS II; experiment: Fluorescence of chlorophyll a in spinach chloroplasts; format: biochemical, Spinacia oleracea L.; conditions: with increasing concentration (c = 0, 56, 220, 431 μM); λex = 436 nm; chlorophyll 10 mg/L
Description: as §1

SMILES | IC50 [3] | melting point | further results
O=C(Nc1ccccc1)c1ccc2ccccc2c1O [Compound 1] | – | – | IC50 [1]: 31.3 µM
O=C(Nc1ccccc1Cl)c1ccc2ccccc2c1O [Compound 2] | – | – | IC50 [1]: 29.4 µM
O=C(Nc1cccc(Cl)c1)c1ccc2ccccc2c1O [Compound 3] | – | – | IC50 [1]: 7.9 µM
O=C(Nc1ccc(Cl)cc1)c1ccc2ccccc2c1O [Compound 4] | – | – | IC50 [1]: 10.8 µM
O=C(Nc1ccccc1Br)c1ccc2ccccc2c1O [Compound 5] | – | – | IC50 [1]: 61.9 µM
O=C(Nc1cccc(Br)c1)c1ccc2ccccc2c1O [Compound 6] | – | – | IC50 [1]: 8.2 µM
O=C(Nc1ccc(Br)cc1)c1ccc2ccccc2c1O [Compound 7] | – | – | IC50 [1]: 9.6 µM
O=C(Nc1cccc(Cl)c1Cl)c1ccc2ccccc2c1O [Compound 8, N-(2,3-Dichlorophenyl)-1-hydroxynaphthalene-2-carboxamide] | 235 µM | – | aqueous solubility [2]: limited aqueous solubility
O=C(Nc1ccc(Br)cc1Br)c1ccc2ccccc2c1O [Compound 17, N-(2,4-Dibromophenyl)-1-hydroxynaphthalene-2-carboxamide] | 505 µM | 185 to 188 °C | aqueous solubility [2]: limited aqueous solubility
O=C(Nc1cc(Br)ccc1Br)c1ccc2ccccc2c1O [Compound 18, N-(2,5-Dibromophenyl)-1-hydroxynaphthalene-2-carboxamide] | 7.6 µM | 198 to 200 °C | –
O=C(Nc1c(Br)cccc1Br)c1ccc2ccccc2c1O [Compound 19, N-(2,6-Dibromophenyl)-1-hydroxynaphthalene-2-carboxamide] | 78 µM | 212 to 216 °C | –
O=C(Nc1c(Br)cc(Br)cc1Br)c1ccc2ccccc2c1O [Compound 20, 1-Hydroxy-N-(2,4,6-tribromophenyl)naphthalene-2-carboxamide] | 45 µM | 115 to 118 °C | –
O=C(Nc1ccc(Br)cc1Cl)c1ccc2ccccc2c1O [Compound 22, N-(4-Bromo-2-chlorophenyl)-1-hydroxynaphthalene-2-carboxamide] | 171 µM | 186 to 187 °C | aqueous solubility [2]: limited aqueous solubility
CN(C)C(=O)Nc1ccc(Cl)c(Cl)c1 [DCMU, 3-(3,4-dichlorophenyl)-1,1-dimethylurea, reference compound] | ~1.9 µM and 1.9 µM | – | –

Now from value to compound, other results behind:

IC50 [3] | melting point | SMILES | further results
531 µM | – | O=C(Nc1ccc(Cl)cc1Cl)c1ccc2ccccc2c1O [Compound 9, N-(2,4-Dichlorophenyl)-1-hydroxynaphthalene-2-carboxamide] | aqueous solubility [2]: limited aqueous solubility
59.6 µM | – | O=C(Nc1cc(Cl)ccc1Cl)c1ccc2ccccc2c1O [Compound 10, N-(2,5-Dichlorophenyl)-1-hydroxynaphthalene-2-carboxamide] | –
100 µM | – | O=C(Nc1c(Cl)cccc1Cl)c1ccc2ccccc2c1O [Compound 11, N-(2,6-Dichlorophenyl)-1-hydroxynaphthalene-2-carboxamide] | –
13.3 µM | – | O=C(Nc1ccc(Cl)c(Cl)c1)c1ccc2ccccc2c1O [Compound 12, N-(3,4-Dichlorophenyl)-1-hydroxynaphthalene-2-carboxamide] | –
5.2 µM | – | O=C(Nc1cc(Cl)cc(Cl)c1)c1ccc2ccccc2c1O [Compound 13, N-(3,5-Dichlorophenyl)-1-hydroxynaphthalene-2-carboxamide] | –
153 µM | – | O=C(Nc1cc(Cl)c(Cl)cc1Cl)c1ccc2ccccc2c1O [Compound 14, 1-Hydroxy-N-(2,4,5-trichlorophenyl)naphthalene-2-carboxamide] | –
10.6 µM | – | O=C(Nc1c(Cl)cc(Cl)cc1Cl)c1ccc2ccccc2c1O [Compound 15, 1-Hydroxy-N-(2,4,6-trichlorophenyl)naphthalene-2-carboxamide] | –
8 µM | – | O=C(Nc1cc(Cl)c(Cl)c(Cl)c1)c1ccc2ccccc2c1O [Compound 16, 1-Hydroxy-N-(3,4,5-trichlorophenyl)naphthalene-2-carboxamide] | –
278 µM | 182 to 184 °C | O=C(Nc1ccc(Cl)cc1Br)c1ccc2ccccc2c1O [Compound 21, N-(2-Bromo-4-chlorophenyl)-1-hydroxynaphthalene-2-carboxamide] | aqueous solubility [2]: limited aqueous solubility
60.3 µM | 178 to 180 °C | O=C(Nc1cc(Br)ccc1Cl)c1ccc2ccccc2c1O [Compound 23, N-(5-Bromo-2-chlorophenyl)-1-hydroxynaphthalene-2-carboxamide] | AAA fluorescence at 334 nm [4]: quenching of AAA fluorescence at 334 nm was observed; intensity of Chla fluorescence emission band at 686 nm [5]: gradual decrease
6.7 µM | 203 to 205 °C | O=C(Nc1ccc(Br)c(Cl)c1)c1ccc2ccccc2c1O [Compound 24, N-(4-Bromo-3-chlorophenyl)-1-hydroxynaphthalene-2-carboxamide] | –
